Assay results from US20040235939A1, “Synthesis of peloruside a and analogs thereof for use as antitumor agents” (priority 2003, published 2004).
Where two headings read alike, the source gives them in different places.

Experiments:
Mia PaCa-2 = assay: SRB cytotoxicity assay, Mia PaCa-2; format: cell-based; details: Homo sapiens
Method: (§1) Cells were treated on Days 1, 3, 5, and 7 with 5 μL of media, vehicle, or drug. Peloruside A was resuspended in 0.1% DMSO and added to wells to a final concentration of 0.01, 0.1, 1, 10 or 100 nM. Taxol® (Sigma-Aldrich) was resuspended in 0.1% ethanol and added to cells to a final concentration of 0.1, 1, 10, 100, or 1000 nM.
(§2) The amount of surviving cells was measured using the sulforhodamine B (SRB) assay as previously described (Skehan et al., New colorimetric cytotoxicity assay for anticancer-drug screening. J. Natl. Cancer Inst., 1990. 82(13): p. 1107-12). Cells were fixed on Days 5, 7, and 9 (representing 4, 6, and 8 days of exposure to drug or control, respectively) with 50% (w/v) trichloroacetic acid for 1 hour at 4° C., rinsed thoroughly with water, and dried overnight. The dried cells were stained with 4% sulforhodamine B in 1% acetic acid, rinsed thoroughly and dried overnight. The bound dye was resuspended in 10 mM Tris and the absorbance was read at 492 nm. Percent growth inhibition (GI) was calculated as follows: %GI=(1−(absorbance sample/absorbance vehicle))×100. The absorbance value for each drug concentration and control represents the average of 6 replicates. The %GI was plotted against the log[drug] to generate the growth curves. The concentration of drug required to inhibit growth by 50% (GI50) was calculated for each time point.

MDA-MB-231 = assay: SRB cytotoxicity assay, MDA-MB-231; format: cell-based; details: Homo sapiens
Method: as §1, §2

[1] = system: Tubulin, purified from bovine brains; assay: Tubulin polymerization in vitro; format: biochemical
Method: Tubulin, purified from bovine brains and prepared in PEM-buffer (80 mM PIPES, 0.5 mM MgCl2, 1 mM EGTA, pH 6.9) was thawed under vacuum on ice. Tubulin was incubated at 37° C. until almost melted and resuspended to a final concentration of 2 mg/ml and placed on ice. Peloruside A or Taxol® was added into transparent 96-well plates (Coming Incorp. Costar) and placed on ice. GTP (Sigma) was added to a final concentration of 1 mM. The 96 well plate was warmed to 37° C. and 120 μl of tubulin solution was added into each well. The absorbance of the reaction at 340 nm over time (each 40-50 sec.) was measured on the spectrophotometer TECAN SPECTRAFluor Plus. Peloruside A or Taxol® was added to the tubulin at a final concentration of 5 or 10 μM.

1A9 cells = assay: Cell Titer-Glo cell viability, parent 1A9 cells; format: cell-based, human; details: parental 1A9 cells, 48 hours
Method: These cell lines have specific amino acid mutations in tubulin that prevent Taxol®-binding. […] Synthetic (+)-Peloruside A was used for the present example.
1A9, ptx10 and ptx22 cells were plated in 96-well plates to approximately 50% confluency. On the next day, Taxol® or Peloruside A was added to each well and incubated for 48 hours. A final concentration of 1, 2, 3, 4, 5, 8, 10, 20, 30, 50, 100, 300, 500, or 1000 nM of Taxol® was used. A final concentration of 10, 20, 30, 40, 50 or 70 nM of Peloruside A was used. Cell viability was measured using the Cell Titer-Glo Luminescent Cell Viability Assay (Promega). FIGS. 80-82 show bar graphs of cell viability at various concentrations of Peloruside A and Taxol®.

[2] = system: various cultured human tumor cell lines; assay: Proliferation of a panel of tumor cell lines; format: cell-based; details: panel: colon, pancreas, melanoma, ovarian, renal, liver, lung, breast, prostate
Method: as §1, §2

SMILES	GI50 (Mia PaCa-2; 96 h, Mia PaCa-2, Pancreas, 4 Days, read-out: GI50) [nM]	GI50 (Mia PaCa-2; 144 h, Mia PaCa-2, Pancreas, 6 Days, read-out: GI50) [nM]	GI50 (Mia PaCa-2; 192 h, Mia PaCa-2, Pancreas, 8 Days, read-out: GI50) [nM]	GI50 (MDA-MB-231; MDA-MB-231, 144 h, MB-MDA-231, Breast, 6 Days, read-out: GI50) [nM]	GI50 (MDA-MB-231; MDA-MB-231, 192 h, MB-MDA-231, Breast, 8 Days, read-out: GI50) [nM]	GI50 (Mia PaCa-2; MIA PaCa-2, 96 h) [nM]	GI50 (Mia PaCa-2; MIA PaCa-2, 144 h) [nM]	GI50 (Mia PaCa-2; MIA PaCa-2, 192 h) [nM]	GI50 (MDA-MB-231; MDA-MB-231, 96 h) [nM]	GI50 (MDA-MB-231; MDA-MB-231, 144 h) [nM]	GI50 (MDA-MB-231; MDA-MB-231, 192 h) [nM]	polymerization of tubulin dimers into microtubule polymers (microtubule-stabilizing activity) [1]	tubulin stabilization activity ([1]; 5 or 10 μM, 37° C., absorbance at 340 nm)	inhibition of cell growth (antimitotic activity) (1A9 cells)	inhibition of proliferation of tumor cell lines [2]	inhibition of proliferation of tumor cell lines ([2]; listed as ent-40)
CC(=O)O[C@H]1C(=O)[C@@]2(C)[C@H]([C@H](OC(=O)c3ccccc3)[C@]3(O)C[C@H](OC(=O)[C@H](O)[C@@H](NC(=O)c4ccccc4)c4ccccc4)C(C)=C1C3(C)C)[C@]1(OC(C)=O)CO[C@@H]1C[C@@H]2O [Paclitaxel, paclitaxel, reference compound]	0.73	0.53	0.27	0.09	0.01											
CC[C@H](/C=C(/C)C1C[C@@H](OC)CC(O)C(C)(C)C2(O)OC(C[C@@H](OC)C2O)C[C@@H](OC)[C@H](O)C(=O)O1)CO (single isomer, unassigned; (+)) [Peloruside A, (+)-Peloruside A]						9.65	1.76	2.44	4.02	3.4	1.53	did polymerize tubulin dimers into microtubule polymers	potent tubulin stabilization activity	potent antimitotic activity	inhibited proliferation	did inhibit the growth
